# According to patent publication US8658639B2, “N-substituted-cyclic amino derivative” (Dainippon Sumitomo Pharma Co., Ltd, priority 2009, dated 2014):
# Counter-ions that a name gives are not always drawn.
# Molecular target: T1, Recombinant human renin (Homo sapiens, UniProt P00797)
# T1 sequence (P00797 67-406): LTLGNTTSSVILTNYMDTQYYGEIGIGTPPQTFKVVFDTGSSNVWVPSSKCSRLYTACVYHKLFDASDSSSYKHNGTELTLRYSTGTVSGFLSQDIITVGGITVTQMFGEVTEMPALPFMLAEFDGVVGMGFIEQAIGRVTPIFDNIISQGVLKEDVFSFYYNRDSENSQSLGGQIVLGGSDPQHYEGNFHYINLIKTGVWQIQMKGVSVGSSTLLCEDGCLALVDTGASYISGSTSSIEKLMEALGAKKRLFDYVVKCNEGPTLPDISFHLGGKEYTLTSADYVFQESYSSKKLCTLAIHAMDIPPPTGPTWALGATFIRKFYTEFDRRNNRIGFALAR
# Test: In vitro renin inhibitory activity assay
# Format: biochemical
# Conditions: recombinant human renin 4.2 ng/mL, substrate 4 μM, 37° C., one hour, pH 7.4
# Procedure: Experiment 1: In Vitro Renin Inhibitory Activity Assay
# Recombinant human renin (4.2 ng/mL) was reacted in 0.1M HEPES buffer (pH 7.4) containing 0.1M NaCl, 1 mM EDTA and 0.1 mg/mL BSA together with a substrate and a test compound at 37° C. for one hour. As the substrate, Arg-Glu(EDANS)-Ile-His-Pro-Phe-His-Leu-Val-Ile-His-Thr-Lys(DABCYL)-Arg (SEQ ID NO: 1) or DABCYL-γ-Abu-Ile-His-Pro-Phe-His-Leu-Val-Ile-His-Thr-EDANS (SEQ ID NO: 2) was added in such an amount so that the final concentration thereof became 4 μM. The elevated fluorescence intensity at the exciting wavelength 340 nm and the fluorescence wavelength 500 nm was measured by a fluorescence plate reader. The concentration of a test compound to be needed to inhibit an enzyme activity in the presence of a test compound in several concentrations by 50% was calculated as an IC50 value. The test compounds were diluted in DMSO and used in this Experiment.
row,SMILES,IC50 [nM]
1,CCC(=O)NCCN1C(=O)C(C)(COC)Oc2cc(C(F)(F)F)c(C(=O)N(C(C)C)C3CCCN(C(=O)OC(C)OC(=O)C(C)C)C3)cc21 (stereo not drawn) [Example 74],22
2,CCC(=O)NCCN1C(=O)C2(CCC2)Oc2cc(C)c(C(=O)N(C(C)C)C3CCCN(C(=O)OC(C)OC(=O)CC(C)(C)O)C3)cc21 (stereo not drawn) [Example 50],15
3,CCC(=O)NCCN1C(=O)C2(CCC2)Sc2cc(C)c(C(=O)N(C(C)C)[C@@H]3CCCN(C(=O)OCc4oc(=O)oc4C)C3)cc21 [Example 78],20
4,"CCC(=O)NCCN1C(=O)C(C)(C)Oc2cc(C(F)(F)F)c(C(=O)N(C(C)C)[C@@H]3CCCN(C(=O)[C@@H](N)C(C)C)C3)cc21 [Example 22, N-Isopropyl-2,2-dimethyl-3-oxo-4-[2-(propionylamino)ethyl]-7-(trifluoromethyl)-N-[(3R)-1-L-valylpiperidin-3-yl]-3,4-dihydro-2H-1,4-benzoxazine-6-carboxamide hydrochloride]",85
5,CCC(=O)NCCN1C(=O)C(C)(C)Oc2cc(C)c(C(=O)N(C(C)C)[C@@H]3CCCN(C(=O)OCOC(=O)OC4CCC4)C3)cc21 [Example 12],160
6,CCC(=O)NCCN1C(=O)C2(CCC2)Oc2cc(C)c(C(=O)N(C(C)C)C3CCCN(C(=O)OC(C)OC(=O)C(C)C)C3)cc21 (stereo not drawn) [Example 47],76
7,CCC(=O)NCCN1C(=O)C(C)(C)Oc2cc(C)c(C(=O)N(C(C)C)[C@@H]3CCCN(C(=O)OCOC(=O)OC)C3)cc21 [Example 9],140
8,CCOC(=O)O[C@@H](C)OC(=O)N1CCC[C@@H](N(C(=O)c2cc3c(cc2C)OC(C)(C)C(=O)N3CCNC(=O)CC)C(C)C)C1 [Example 90],730

# Compounds with a lower IC50, results first:
row,IC50 [nM],SMILES
1,14,CCC(=O)NCCN1C(=O)C2(CCC2)Oc2cc(C)c(C(=O)N(C(C)C)C3CCCN(C(=O)OC(C)OC(=O)COC)C3)cc21 (stereo not drawn) [Example 49]
2,1.2,CCC(=O)NCCN1C(=O)C2(CCC2)Oc2cc(C)c(C(=O)N(C(C)C)C3CCCN(C(=O)OC(C)OC(C)=O)C3)cc21 (stereo not drawn) [Example 33]
3,2.5,Cc1oc(=O)oc1COC(=O)N1CCC[C@@H](N(C(=O)c2cc3c(cc2C(F)(F)F)OC2(CC2)C(=O)N3CCNC(=O)C(F)F)C(C)C)C1 [Example 71]
4,9.6,"CCC(=O)NCCN1C(=O)C(C)(C)Oc2cc(C)c(C(=O)N(C(C)C)C3CCCN(C(=O)OC(C)OC(=O)C4CCOCC4)C3)cc21 (single isomer, unassigned) [Example 88]"
5,5.1,CCC(=O)NCCN1C(=O)C(C)(C)Oc2cc(C)c(C(=O)N(C(C)C)[C@@H]3CCCN(C(=O)OCOC(=O)OC4CCOCC4)C3)cc21 [Example 13]
6,1.9,Cc1cc2c(cc1C(=O)N(C(C)C)[C@@H]1CCCN(C(=O)OCc3oc(=O)oc3C)C1)N(CCNC(=O)C(F)F)C(=O)C1(CCC1)O2 [Example 44]
7,2.2,"CCC(=O)NCCN1C(=O)C(C)(C)Sc2cc(C(F)(F)F)c(C(=O)N(C(C)C)[C@@H]3CCCN(C(=O)OCc4oc(=O)oc4C)C3)cc21 [Example 30, (5-Methyl-2-oxo-1,3-dioxol-4-yl)methyl (3R)-3-[{[2,2-dimethyl-3-oxo-4-[2-(propionylamino)-ethyl]-7-(trifluoromethyl)-3,4-dihydro-2H-1,4-benzothiazin-6-yl]carbonyl}(isopropyl)amino]-piperidine-1-carboxylate]"
8,3.2,CCC(=O)NCCN1C(=O)C(C)(C)Oc2cc(C)c(C(=O)N(C(C)C)C3CCCN(C(=O)OC(C)OC(=O)C4CCOCC4)C3)cc21 (stereo not drawn) [Example 60]
9,0.74,CCC(=O)NCCN1C(=O)C(C)(COC)Oc2cc(C(F)(F)F)c(C(=O)N(C(C)C)C3CCCN(C(=O)OC(OC(=O)CC)C(C)C)C3)cc21 (stereo not drawn) [Example 75]
10,0.13,CCC(=O)NCCN1C(=O)C2(CCC2)Oc2cc(C)c(C(=O)N(C(C)C)C3CCCN(C(=O)OC(C)OC(=O)C(F)F)C3)cc21 (stereo not drawn) [Example 97]
